Test results: ChEMBL document CHEMBL3301555, “MMV Malaria Box screening in pLDH viability assay against Plasmodium falciparum gametocytes”

tested on: Plasmodium falciparum; assay: (§1) MMV: Measure of pLDH activity as indication of parasite viability. Gametocytogenesis of 3D7 Plasmodium falciparum strain was induced in vitro and asexual parasites were depleted with N-acetylglucosamine. Gametocytes were treated with dihydroartemisinin, epoxomicin, methylene blue, primaquine, puromycin or chloroquine in 96-well plates and the pLDH activity was evaluated using a modified Makler protocol. Mosquito infectivity was measured by the standard membrane feeding assay.; type: functional; parameters: concentration or dose not given beside the values

Row | SMILES | Growth Inhibition
1 | CN1CCN(c2ccc(Nc3c4ccccc4nc4ccccc34)cc2)CC1 | 62.7432%
2 | O=C(Nc1ccc(Cl)c(Cl)c1)Nc1ccc(Cl)c(Cl)c1 | 10.3704%
3 | COc1ccc(Nc2nc(N/N=C/c3ccc(O)cc3)nc(Nc3ccc([N+](=O)[O-])cc3)n2)cc1 | 24.1364%
4 | CN(C)CCCNc1c2ccccc2nc2ccccc12 | 9.2618%
5 | N=c1n(CCN2CCCCC2)c2ccccc2n1CC(=O)c1ccc(Cl)c(Cl)c1 | 13.8938%
6 | Nc1nc(Nc2cccc(F)c2)nc2ccccc12 | 18.202%
7 | COc1ccc(/C=C2/SC(=Nc3ccccc3)NC2=O)cc1 | 42.24%
8 | c1ccc(/C2=N/c3ccccc3/N=C(/c3ccccc3)c3ccccc32)cc1 | 14.1312%
9 | COc1ccc(-c2nc(N3CCN(C(=O)C4CCCCC4)CC3)c3c4c(sc3n2)CCCC4)cc1 | -0.9006%
10 | O=C(NC1CCN(Cc2ccccc2)CC1)c1cc2nc(-c3ccc(Cl)s3)cc(C(F)(F)F)n2n1 | 6.5116%
11 | Cc1sc(NC(=O)c2ccccc2)c(C(c2cccs2)N2CCN(c3ccccc3)CC2)c1C (stereo unspecified) | 0.692%
12 | Cc1sc(NC(=O)c2ccco2)c(C(c2cccnc2)N2CCC(Cc3ccccc3)CC2)c1C (stereo unspecified) | 4.6056%
13 | CCOC(=O)c1c(C)n(-c2ccccc2)c2ccc(OC(=O)c3cc(OC)c(OC)c(OC)c3)cc12 | -1.486%
14 | COc1cc(C(=O)Nc2nc3c(cc4c5c(cccc53)CC4)s2)cc(OC)c1OC | 2.6754%
15 | COc1ccc(CCN2C(=O)c3[nH]nc(-c4cc(Cl)c(C)cc4O)c3C2c2ccccc2F)cc1 (stereo unspecified) | 16.338%
16 | N#Cc1nc(Cc2cccc3ccccc23)oc1N1CCN(C(c2ccccc2)c2ccccc2)CC1 | -13.1388%
17 | O=C(NNc1cc(N2CCCC2)nc(N2CCCC2)n1)c1ccccc1 | 2.419%
18 | COC(=O)c1ccc(Cl)c2c1C1C=CCC1C(c1cccc3ccccc13)N2 (stereo unspecified) | -3.8852%
19 | COc1ccc(C2c3ccc4ccccc4c3Oc3ncn(CCCn4ccnc4)c(=N)c32)cc1OC (stereo unspecified) | 22.0606%
20 | CN(N=O)C1=C(NC2CCCCC2)C(=O)c2ccccc2C1=O | 32.2%
21 | O=C(CCc1ccccc1)c1ccccc1OCC(O)CN1CCCCC1 (stereo unspecified) | 24.7266%
22 | Cc1ccc(Nc2nc(-c3ccccn3)cs2)cc1 | 62.3104%
23 | OC1=C2C(=Nc3ccccc3SC2c2ccccc2)c2ccccc21 (stereo unspecified) | 34.196%
24 | Cl.N=c1n(CCN2CCCCC2)c2ccccc2n1CC(O)c1cccc(Br)c1 (stereo unspecified) | 59.1366%

Row | SMILES | Growth Inhibition
25 | COc1cc(C(=O)Nc2ccc(-c3nc4ccccc4[nH]3)cc2)cc(OC)c1OC | 13.7592%
26 | CCOc1ccc(N2C(N)=NC(N)=NC2(C)C)cc1.Cl | -4.3826%
27 | COc1cccc(Nc2nc(N)c3ccccc3n2)c1.Cl | 17.598%
28 | Cc1ccc(C(=O)c2oc3ccc4c(C)cc(=O)oc4c3c2C)cc1 | 1.1304%
29 | COc1ccc(CN2CCCC(C(=O)c3ccc(C(F)(F)F)cc3)C2)c(O)c1 (stereo unspecified) | 43.708%
30 | COc1cccc(NC(=O)[C@H](C(C)C)n2c(=O)[nH]c3ccccc3c2=O)c1 | 63.4258%
31 | CCCCCCc1cc2cc(-c3csc(C=Cc4ccccc4)n3)c(=O)oc2cc1O | 20.6338%
32 | O=C(CCl)NCCOc1ccc(Cl)cc1Cl | 8.2288%
33 | Oc1ccc(-c2nc(-c3ccc4oc5ccc(-c6[nH]c(-c7ccc(O)cc7)nc6-c6ccccc6)cc5c4c3)c(-c3ccccc3)[nH]2)cc1 | 21.6376%
34 | CC(Oc1ccc(NC(=O)c2cccs2)cc1)C(=O)c1ccc(Cl)cc1 (stereo unspecified) | 16.818%
35 | O=C(NC(c1ccccc1)c1ccc2cccnc2c1O)c1ccccc1 (stereo unspecified) | 59.5194%
36 | CCCCNc1nc(NC(C)(C)C)nc(NC(C)(C)C)n1 | 40.1594%
37 | COc1ccc(CNC(=O)c2cc3c(=O)n4ccccc4nc3n(CCc3ccccc3)c2=N)cc1 | 29.2402%
38 | Brc1ccc(Nc2nc3ccccc3nc2Nc2ccc(Br)cc2)cc1 | 6.7896%
39 | COc1ccc(CCn2c(=N)c(C(=O)NCc3cccnc3)cc3c(=O)n4cccc(C)c4nc32)cc1 | 4.0678%
40 | CC(=O)c1sc(NC(=O)Nc2ccc(C)cc2C)nc1C | 12.9136%
41 | COc1ccc(-c2cn3c(C(=O)Nc4ccccc4Cl)c(-c4ccccc4)c4c3n2CCCC4)cc1 | 1.628%
42 | Cl.Cn1c(=O)n(C)c2cc(CNCCNc3ccnc4cc(Cl)ccc34)ccc21 | 35.6028%
43 | Cc1cc(Nc2ccc(OCc3ccccc3)cc2)nc2cc(O)ccc12 | 36.4644%
44 | Cn1c(C(=O)c2cccc3ccccc23)nc2ccccc21 | -3.612%
45 | CCN(CC)CCNc1ccnc2cc3ccccc3cc12.O=P(O)(O)O | 12.0652%
46 | CCOc1ccc2nc(C)cc(Nc3ccc(N(C)C)cc3)c2c1.Cl | 13.9954%
47 | COc1ccc(Nc2cc(C)nc(NCc3ccccc3)n2)cc1 | 8.4962%
48 | N=c1c2ccccc2nnn1-c1cccc(C(F)(F)F)c1 | 20.848%

Row | SMILES | Growth Inhibition
49 | COc1cc(-c2nc(-c3ccc(Sc4ccccc4)cc3)c(-c3ccccc3)[nH]2)cc(OC)c1O | 10.5558%
50 | COc1ccc(C=C2SC(Nc3ccc(F)cc3)=NC2=O)c(OC)c1 | 32.1464%
51 | Oc1ccc2ccccc2c1CNc1nc2ccccc2[nH]1 | 8.4186%
52 | O=C(Nc1ccc(-c2nc3ccccc3[nH]2)cc1)c1ccc(Cl)c(Cl)c1 | 11.2736%
53 | O=C1c2ccc3c4c(ccc(c24)C(=O)N1CCCCO)C(=O)N(CCCCO)C3=O | 33.201%
54 | O=C(Nc1ccc(-c2nc3cc(NC(=O)c4ccc(Cl)cc4)ccc3[nH]2)cc1)c1ccc(Cl)cc1 | 18.844%
55 | OCCNc1nc(Nc2ccc(Cl)c(Cl)c2)nc2ccccc12 | 18.8816%
56 | OC(Cn1nnc2ccccc21)Cn1c2ccc(Br)cc2c2cc(Br)ccc21 (stereo unspecified) | 11.39%
57 | Nc1ccc(-c2nc3cc(Oc4ccc(Oc5ccc6[nH]c(-c7ccc(N)cc7)nc6c5)cc4)ccc3[nH]2)cc1 | 21.5644%
58 | Cc1ccccc1OCCSc1nc2ccc(NC(=O)c3cccs3)cc2s1 | 6.631%
59 | CCOC(=O)c1cnc2ccc(OC)cc2c1Nc1ccc(N2CCN(C)CC2)cc1 | 5.5888%
60 | Cc1cc(N(C)C)nc(Nc2ccc(NC(=O)Nc3ccccc3)cc2)n1 | 16.1034%
61 | COc1ccccc1C(=O)ON=C(N)Cc1cccc2ccccc12 | 8.274%
62 | CCOc1cc2c(cc1OCC)C(c1cc(Cl)ccc1O)NCC2 (stereo unspecified) | 24.0914%
63 | CN1C=C(c2ccc3ccccc3n2)C(c2c[nH]c3ccccc23)c2ccccc21 (stereo unspecified) | 12.6514%
64 | COc1ccccc1NC1=C(N2CCCCC2)C(=O)c2ccccc2C1=O | 50.0502%
65 | COc1cc(-c2nc(-c3ccccc3)c(-c3ccccc3)[nH]2)cc(OC)c1O | 13.9122%
66 | Cc1ccc(-c2nc3ccccc3o2)cc1NCc1cc(Cc2ccccc2)ccc1O | 21.1902%
67 | Cc1ccc(Nc2nc(N)c3ccccc3n2)cc1Cl | 23.2734%
68 | CCc1ccc(CNCC(O)c2ccccc2)cc1.Cl (stereo unspecified) | 26.7%
69 | COc1ccc(C(O)(CCC(C)C)C(CN2CCOCC2)c2ccc(Cl)cc2)cc1.Cl (stereo unspecified) | 9.238%
70 | CSc1ccccc1C(=O)Nc1nc(-c2ccccn2)cs1 | 29.8315%
71 | Br.CCn1c2c(c(=N)c3c1CCC3)CCCC2 | -4.7115%
72 | O=C(Cc1ccccc1)NC(c1ccc(Cl)cc1)c1c(O)ccc2ccccc12 (stereo unspecified) | 13.3694%

Row | SMILES | Growth Inhibition
73 | COc1cc(CNCCc2ccc(Cl)cc2)cc(OC)c1O | 17.1102%
74 | Cc1ccc2c(C)nc(Nc3nc(C)cc(-c4ccccc4)n3)nc2c1 | -3.9148%
75 | c1ccc(CNc2nc(Nc3ccccc3)nc3ccccc23)cc1 | 12.3006%
76 | CCOc1ccc(Nc2ccnc3cc(Cl)ccc23)cc1 | 2.6298%
77 | Cc1cccc(N2C(=O)C3C(C2=O)C2(c4ccccc4)C(=O)C3(c3ccccc3)C(c3ccc4c(c3)OCO4)=C2c2ccc3c(c2)OCO3)c1 (stereo unspecified) | 6.488%
78 | Oc1ccc(Br)cc1CN1CCN(Cc2ccc(Cl)cc2)CC1 | 44.4912%
79 | Cc1ccc(F)cc1NC(=O)c1cc(Cl)ccc1Nc1ccccc1 | 10.2234%
80 | CCOc1ccc2nc(C)cc(Nc3ccc(Br)cc3)c2c1 | -8.7645%
81 | COc1cc2c3cc1Oc1c(OC)c(OC)cc4c1C(Cc1ccc(O)c(c1)Oc1ccc(cc1)CC3N(C)CC2)N(C)CC4.Cl (stereo unspecified) | 37.697%
82 | CCCCCCc1cc2cc(-c3nc4ccccc4[nH]3)c(=Nc3ccccc3C)oc2cc1O | 18.3094%
83 | Br.Cc1ccc(C)c(-c2csc(Nc3ccc(C)c(C)c3)n2)c1 | -6.2508%
84 | CCOc1c(Br)cc(C2C(C(=O)OC)=CN(C)C=C2C(=O)OC)cc1OC | 11.9416%
85 | COc1ccc2sc(N(Cc3cccnc3)C(=O)c3ccc(C#N)cc3)nc2c1 | -6.4226%
86 | CCOC(=O)c1cnc2ccc(OC)cc2c1NCc1ccccc1 | 11.9674%
87 | CCCn1c(=N)c(C(=O)NC2CCCCC2)cc2c(=O)n3cccc(C)c3nc21 | 2.4486%
88 | CCOC(=O)C1=CN(C)C=C(C(=O)OCC)C1c1cc(Br)c(OCC)c(OC)c1 | 20.4206%
89 | CC(C)(C)c1ccc(C2CC3=Nc4ccccc4N(C(=O)c4ccccc4Cl)C(c4ccc(F)cc4)C3=C(O)C2)cc1 (stereo unspecified) | 12.8628%
90 | CN1CCN(c2nc(Nc3ccc(O)cc3)nc3ccccc23)CC1.Cl | 11.7422%
91 | CCCCc1c(CCC)c(=N)c2ccccc2n1C.I | 1.3375%
92 | Nc1ccn([C@@H]2O[C@H](CO)[C@@H](O)[C@H]2O)c(=O)n1 [CYTIDINE] | 13.5248%
93 | O=C(Nc1cccc(C2=NCCN2)c1)Nc1cccc(C2=NCCN2)c1 [IMIDOCARB] | 24.1816%

tested on: Plasmodium falciparum; assay: as §1, with “assay. The IC50 value was extrapolated as the concentration that induced a 50% inhibition of gametocyte viability.” for “assay.”; type: functional, organism-based

Row | SMILES | IC50
94 | CN1CCN(c2ccc(Nc3c4ccccc4nc4ccccc34)cc2)CC1 | 732 nM
95 | CN(C)CCCNc1c2ccccc2nc2ccccc12 | 3140 nM
96 | Cc1ccc(Nc2nc(-c3ccccn3)cs2)cc1 | 1380 nM
97 | Cl.N=c1n(CCN2CCCCC2)c2ccccc2n1CC(O)c1cccc(Br)c1 (stereo unspecified) | 3930 nM
98 | COc1cccc(NC(=O)[C@H](C(C)C)n2c(=O)[nH]c3ccccc3c2=O)c1 | 2750 nM
99 | O=C(NC(c1ccccc1)c1ccc2cccnc2c1O)c1ccccc1 (stereo unspecified) | 2650 nM
100 | COc1ccccc1NC1=C(N2CCCCC2)C(=O)c2ccccc2C1=O | 236 nM
101 | CSc1ccccc1C(=O)Nc1nc(-c2ccccn2)cs1 | 4610 nM
